In patent publication US7947695B2, “5-membered annelated heterocyclic pyrimidines as kinase inhibitors” (Janssen Pharmaceutica NV, priority 2005, dated 2011):

How the values were obtained:
CDK4/cyclinD1 = CDK4/cyclinD1 (Homo sapiens, UniProt P11802); assay: In vitro filtration assay for CDK4 inhibitory activity (pRb phosphorylation, [33P]-ATP); assay type: biochemical; conditions: GST-pRb substrate, 1 μM unlabeled ATP, 25° C. 45 minutes, read-out: cdk4 filter (pIC50) (converted)
Method: (§1) Compounds of the present invention were tested in an in vitro filtration assay assessing CDK4 activity by means of its pRb-phosphorylation activity using [^33P]-ATP as phosphor donor. The radioactive phosphorylated pRb is then captured on filtermats and the incorporated [^33P] quantitated using a phosphorage storage screen.
The CDK4 kinase reaction is performed at 25° C. for 45 minutes in a 96-well microtiterplate. The 25 μl reaction volume contains 50 mM Hepes pH 7.5, 10 mM NaF, 10 mM MgCl2, 1 mM Na3VO4, 1 μM unlabeled ATP, 1 mM DTT, 0.5 μCi AT^33P, 0.76 μg/well GST-pRb, 50 ng CDK4/cyclinD1/well and 0.2% compound in 100% DMSO.
(§2) The reaction is stopped by adding 5 μl of a 3% phosphoric acid solution. 10 μl of the reaction mixture is then spotted onto a Filtermat P30 filter (Wallac) and washed 3 times for 5 min. in 75 mM phosphoric acid and 1 time for 5 min. in methanol prior to drying and quantification on the Typhoon (Amersham) using a phosphorage storage screen.
(§3) For each experiment, controls (containing enzyme (complex) and DMSO without compound), a blank incubation (containing DMSO but no enzyme (complex) or compound) and samples (containing enzyme (complex) and compound dissolved in DMSO) were run in parallel. All compounds tested were dissolved and eventually further diluted in DMSO. […] In each test, the blank value was subtracted from both the control and the sample values. The control sample represented maximal enzyme activity. For each sample, the amount of cpm was expressed as a percentage of the mean cpm value of the controls. When appropriate, IC50-values (concentration of the drug, needed to reduce the enzyme activity to 50% of the control) were computed using linear interpolation between the experimental points just above and below the 50% level. Herein the effects of test compounds are expressed as pIC50 (the negative log value of the IC50-value).

AURORA A = target: T1, AURORA A (Homo sapiens, UniProt O14965); assay: In vitro filtration assay for AURORA A inhibitory activity; assay type: biochemical; conditions: Kemptide substrate, 1 μM unlabeled ATP, 25° C. 40 minutes, read-out: Aurora A see C.2 (pIC50) (converted)
T1 sequence (O14965 1-403): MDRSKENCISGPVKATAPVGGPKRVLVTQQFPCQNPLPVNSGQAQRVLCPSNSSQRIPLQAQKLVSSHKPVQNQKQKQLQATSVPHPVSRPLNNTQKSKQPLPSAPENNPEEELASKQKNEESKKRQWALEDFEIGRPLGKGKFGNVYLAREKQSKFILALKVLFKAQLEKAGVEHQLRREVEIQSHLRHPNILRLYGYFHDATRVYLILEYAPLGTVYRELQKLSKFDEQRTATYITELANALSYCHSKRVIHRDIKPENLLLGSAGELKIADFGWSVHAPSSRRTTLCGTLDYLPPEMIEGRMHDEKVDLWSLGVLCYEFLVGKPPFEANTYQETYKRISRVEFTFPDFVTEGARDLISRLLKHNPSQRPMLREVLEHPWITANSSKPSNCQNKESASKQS
Method: as §1, with “AURORA A” for “CDK4”, “substrate-phosphorylation” for “pRb-phosphorylation”, “substrate” for “pRb”
The Aurora-A kinase reaction is performed at 25° C. for 40 minutes in a 96-well microtiterplate. The 25 μl reaction volume contains 12 mM MOPS pH 7, 0.4 mM EDTA, 0.002% Brij35, 1% glycerol, 0.02% beta-mercapto-ethanol, 0.2 mg/ml BSA, 1 μM unlabeled ATP, […] [^33P]-ATP, 200 μM Kemptide, 3 ng Aurora A/well and 0.2% compound in 100% DMSO.
as §2, §3

AURORA B = AURORA B (Homo sapiens, UniProt Q96GD4); assay: In vitro filtration assay for AURORA B inhibitory activity; assay type: biochemical; conditions: peptide (C(LRRWSLG)×4), 1 μM unlabeled ATP, 25° C. 40 minutes, read-out: Aurora B see C.3 (pIC50) (converted)
Method: as §1, with “AURORA B” for “CDK4”, “substrate-phosphorylation” for “pRb-phosphorylation”, “substrate” for “pRb”
The Aurora-B kinase reaction is performed at 25° C. for 40 minutes in a 96-well microtiterplate. The 25 μl reaction volume contains 60 mM Hepes pH 7.5, 3 mM MgCl2, 3 mM MnCl2, 3 μM Na3VO4, 50 μg/ml PEG20000, 1 μM unlabeled ATP, 1 mM DTT, 0.2 μCi AT^33P, 0.25 μg/well peptide (C(LRRWSLG)×4),100 ng Aurora-B/well and 0.2% compound in 100% DMSO. The reaction is stopped by adding 5 μl of a 3% phosphoric acid solution. 10 μl of the reaction mixture is then spotted onto a Filtermat P30 filter (Wallac) and washed 3 times for 5 min. in 75 mM phosphoric acid and 1 time for 5 min. in methanol prior to drying and quantification on the Typhoon (Amersham) using a phosphorage storage screen.
as §3

[1] = target: CDK4/cyclinD1 enzyme complex (Homo sapiens, UniProt P11802); assay: In vitro scintillation proximity assay (SPA) for CDK4 inhibitory activity; assay type: biochemical; conditions: GST-pRb substrate, 33P-ATP, 25° C. 30 minutes, read-out: cdk4 SPA see C.4 (pIC50) (converted)
Method: Compounds of the present invention were tested in an in vitro assay based on SPA technology.
In principle, the assay relies upon the well established SPA technology for the detection of CDK4 phosphorylated proteins, i.e pRb. This phosphorylation is performed using I0 CDK4/cyclinD1 enzyme complex and ^33P-ATP as phosphor donor.
The CDK4 SPA kinase reaction is performed at 25° C. for 30 minutes in a 96-well microtiter plate. The 100 μl reaction volume contains 40 mM Hepes, 6 mM NaF, 6 mM MgCl2, 0.6 mM Na3VO4, 2 μg/ml Pepstatin, 2 μg/ml Leupeptin, 2 μg/ml Aprotinin, 50 μg/ml TLCK, 150 μg/ml DTT, 0.3 μg/ml benzamide, 0.1 μCi ^33P-ATP, 1.7 μg GST-pRb, 50 ng CDK4/cyclinD1/well and 0.2% compound in 100% DMSO. The reaction is stopped by adding to each well 100 μl of the glutathione coated SPA beads (10 mg/ml in PBS+10 mM EDTA+100 μM ATP+0.05% Triton X 100). The plates are then shaked at 300 rpm for 30 min to allow binding of the GST-tagged substrate to the glutathione coated beads. The beads are allowed to settle at the bottom of the plate for 30 minutes. The microtiterplates are centrifuges at 800 rpm for 10 minutes and the amount of phosphorylated (^33P) substrate is determined by counting (30 sec/well) in a microtiterplate scintillation counter.
as §3

Chain of CDK4/cyclinD1 (P11802 whole entry): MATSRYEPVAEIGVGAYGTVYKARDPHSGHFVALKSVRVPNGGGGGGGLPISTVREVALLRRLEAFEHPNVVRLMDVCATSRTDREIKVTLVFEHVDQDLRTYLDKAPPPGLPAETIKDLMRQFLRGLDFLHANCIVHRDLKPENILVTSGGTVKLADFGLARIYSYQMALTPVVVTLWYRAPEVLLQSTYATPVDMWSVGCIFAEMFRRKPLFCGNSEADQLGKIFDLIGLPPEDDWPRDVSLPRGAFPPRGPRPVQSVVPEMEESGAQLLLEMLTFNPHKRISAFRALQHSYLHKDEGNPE
Chain of CDK4/cyclinD1 (P24385 whole entry partner): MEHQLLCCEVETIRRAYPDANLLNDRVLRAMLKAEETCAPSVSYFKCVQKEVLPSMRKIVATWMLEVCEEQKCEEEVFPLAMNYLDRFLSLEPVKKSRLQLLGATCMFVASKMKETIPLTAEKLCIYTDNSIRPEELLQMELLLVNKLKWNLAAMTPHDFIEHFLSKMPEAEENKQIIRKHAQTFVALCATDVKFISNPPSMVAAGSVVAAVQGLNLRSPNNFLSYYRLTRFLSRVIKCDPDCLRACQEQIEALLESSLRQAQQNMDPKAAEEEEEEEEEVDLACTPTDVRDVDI
Chain of CDK4/cyclinD1 enzyme complex (P11802 whole entry): as the sequence (P11802 whole entry) above
Chain of CDK4/cyclinD1 enzyme complex (P24385 whole entry partner): as the sequence (P24385 whole entry partner) above
Chain of AURORA B (Q96GD4 whole entry): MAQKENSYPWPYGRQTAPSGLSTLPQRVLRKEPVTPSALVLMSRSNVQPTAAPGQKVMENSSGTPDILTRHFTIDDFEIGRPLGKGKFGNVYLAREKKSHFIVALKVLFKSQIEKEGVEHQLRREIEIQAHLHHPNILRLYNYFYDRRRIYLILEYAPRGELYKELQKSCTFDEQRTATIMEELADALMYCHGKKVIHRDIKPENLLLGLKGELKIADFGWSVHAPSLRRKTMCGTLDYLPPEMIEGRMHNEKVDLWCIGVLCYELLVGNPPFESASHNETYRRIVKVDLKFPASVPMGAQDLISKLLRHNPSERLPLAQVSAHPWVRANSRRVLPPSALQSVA

IC50 (CDK4/cyclinD1)	IC50 (AURORA A)	IC50 (AURORA B)	IC50 [1]	melting point	SMILES
100 nM	501 nM	> 10000 nM		240 °C	O=S(=O)(c1ccc(Nc2ncc3cnn(C4CCCCC4)c3n2)cc1)N1CCOCC1 [Co. No. 8]
126 nM	251 nM	794 nM		177 to 181 °C	O=C(NC1CCN(CCO)CC1)c1ccc(Nc2ncc3cnn(C4CCCCC4)c3n2)cc1 [Co. No. 9]
79.4 nM	50.1 nM	> 10000 nM	12.6 nM		OCCCC1CCN(c2ccc(Nc3ncc4cnn(C5CCCCC5)c4n3)cc2)CC1 [compound 10]
39.8 nM	63.1 nM	251 nM	20 nM		c1cc(N2CCOCC2)ccc1Nc1ncc2cnn(C3CCCCC3)c2n1 [compound 12]
794 nM	126 nM	631 nM			O=C(NC1CCOCC1)c1ccc(Nc2ncc3cnn(C4CCCCC4)c3n2)cc1 [compound 95]
631 nM	100 nM	1260 nM			O=C(NCCN1CCOCC1)c1ccc(Nc2ncc3cnn(C4CCCCC4)c3n2)cc1 [compound 96]
631 nM	398 nM	501 nM			COCCCN1CCC(NC(=O)c2ccc(Nc3ncc4cnn(C5CCCCC5)c4n3)cc2)CC1 [compound 97]

Further lines, the compound ahead of its results:

SMILES	IC50 (CDK4/cyclinD1)	IC50 (AURORA A)	IC50 (AURORA B)	IC50 [1]	melting point
CN1CCN(c2ccc(Nc3ncc4cnn(C5CCCCC5)c4n3)cc2)CC1 [Co. No. 1]	3.16 nM	126 nM	251 nM	5.01 nM	180 °C
CN1CCN(c2ccc(Nc3ncc4ncn(C5CCCCC5)c4n3)cc2)CC1 [Co. No. 5]	631 nM	> 10000 nM	> 10000 nM	3160 nM	203.5 to 203.6 °C
CN1CCN(c2ccc(Nc3ncc4[nH]c(=O)n(C5CCCCC5)c4n3)cc2)CC1 [Co. No. 6]	251 nM	> 10000 nM	> 10000 nM	100 nM	294 °C
CN1CCN(c2ccc(Nc3ncc4c(=O)[nH]n(C5CCCCC5)c4n3)cc2)CC1 [Co. No. 7]	79.4 nM		398 nM	158 nM	> 260 °C
CN1CCN(c2ccc(Nc3ncc4cnn(C5CCCC5)c4n3)cc2)CC1 [compound 11]	31.6 nM	158 nM	398 nM	6.31 nM	
OCCCC1CCN(c2ccc(Nc3ncc4cnn(C5CCCC5)c4n3)cc2)CC1 [compound 13]	63.1 nM	50.1 nM	> 10000 nM	50.1 nM	
CN1CCN(c2ccc(Nc3ncc4cnn(-c5ccccc5)c4n3)cc2)CC1 [compound 14]	20 nM	79.4 nM	794 nM	3.98 nM	
O=c1[nH]c2cnc(Nc3ccc(N4CCOCC4)cc3)nc2n1C1CCCCC1 [compound 78]	1000 nM			631 nM	
CN1CCC(NCc2ccc(Nc3ncc4[nH]c(=O)n(C5CCCCC5)c4n3)cc2)CC1 [compound 87]	3980 nM	> 10000 nM	> 10000 nM		
CN1CCN(c2ccc(Nc3ncc4[nH]c(=O)n([C@H]5C[C@@H]6CC[C@H]5C6)c4n3)cc2)CC1 [compound 88]	2000 nM	1580 nM	> 10000 nM		
CN1CCN(c2ccc(Nc3ncc4c(n3)N(C3CCCCC3)C(=O)C4)cc2)CC1 [compound 89]	316 nM	1580 nM	3160 nM		
CN1CCN(c2ccc(Nc3ncc4c(=O)[nH]n(C5CCCC5)c4n3)cc2)CC1 [compound 91]	631 nM	7940 nM	> 10000 nM	1260 nM	
O=c1[nH]n(C2CCCC2)c2nc(Nc3ccc(N4CCC(CCCO)CC4)cc3)ncc12 [compound 92]	6310 nM		> 10000 nM	2510 nM	
O=c1[nH]n(C2CCCC2)c2nc(Nc3ccc(N4CCOCC4)cc3)ncc12 [compound 93]	5010 nM	1580 nM	> 10000 nM	2510 nM	
O=c1[nH]n(C2CCCCC2)c2nc(Nc3ccc(N4CCC(CCCO)CC4)cc3)ncc12 [compound 94]	1580 nM	3160 nM	> 10000 nM	1000 nM	
